{"source": "patent EP0313703A1", "about": "“Use of 24,25-dihydroxycholecalciferole in the treatment of urinary calculus” (KUREHA KAGAKU KOGYO KABUSHIKI KAISHA, priority 1987, dated 1989)", "key": {"[1]": {"experiment": "Acute oral toxicity, single dose, 2 weeks observation", "format": "in vivo, mice", "conditions": "mouse, in vivo, po, male ICR mice; read-out: acute oral LD₅₀", "experimental": "(§1) After dissolving the present substance in ethanol, the thus formed solution was diluted by a triglyceride of a fatty acid of 8 to 10 carbon atoms so that the concentration of ethanol became 2 %. The thus formed solution was orally (p.o.) administered to each of 10 male ICR mice (age of 6 weeks, body weight of 25±3 g) at dose of 150 mg/kg. […] Accordingly, the acute oral LD₅₀ of the present substance is not less than […] and the present substance can be said to be extremely safe."}, "male ICR mice": {"test_system": "male ICR mice", "experiment": "Acute oral toxicity, single dose, 2 weeks observation", "format": "in vivo", "conditions": "150 mg/kg p.o.", "experimental": "as §1"}, "male or female ICR mice": {"test_system": "male or female ICR mice", "experiment": "30-day repeated oral administration: body weight and histopathology", "format": "in vivo", "conditions": "10, 100 or 1000 µg/kg daily p.o. for 30 days", "experimental": "After dissolving 24R,25-(OH)₂-D₃, at a prescribed concentration, into the triglyceride of a fatty acid of 8 to 10 carbon atoms containing 1 % of ethanol, the solution was forcibly and orally administered to each of the three groups of the male or female ICR mice continuously for 30 days at a daily dose of 10, 100 or 1000 µg/kg.\nThe examined organs are as follows: brain, heart, lung, liver, kidney, adrenal, spleen, pancreas, thyroid, hypophysis, thymus, mesentric lymph node, testis, ovary, uterus, stomach, small intestines (jejunum, ileum and duodenum), large intestines (colon and cecum), eyeball, submandibular gland, urinary bladder, backskin, muscle, sternum, marrow of sternum, femur and marrow of femur."}, "renal calculus": {"test_system": "renal calculus", "experiment": "Inhibition of formation of renal calculus in model rats (ethylene glycol + 1α-hydroxycholecarciferol)", "format": "in vivo, Wistar rats", "conditions": "10 µg/kg/1 ml/day p.o., four weeks", "experimental": "As the test animals for renal calculus, the following rats were used.\nTwenty male Wistar rats (age of 8 weeks and body weight of about 200 g) were allowed to take a water containing 0.5 % of ethylene glycol freely, and a mixture of 0.5 µg of 1α-hydroxycholecarciferol and 0.1 ml of triglyceride of a fatty acid of 8 to 10 carbon atoms was forcibly and orally administered by a stomach tube every other day for four weeks, thereafter being used as the test animals.\n24R,25-(OH)₂-D₃ in the triglyceride of a fatty acid of 8 to 10 carbon atoms containing 2 % of ethanol was forcibly and orally administered to each of the test animals at a dose of 10µg/kg/1 ml/day by a stomach tube, and to each animals of the control group, the triglyceride of a fatty acid of 8 to 10 carbon atoms was administered in the same manner as above.\nThe animals were slaughtered after four weeks from the first administration, and the kidney of the animal was extirpated therefrom after the exsanguination and immediately photographed by soft X-ray. Furhter the cross section of the extirpated kidney containing papilla was observed by naked eyes."}}}
{"compound": "C=C1CC[C@H](O)C/C1=C/C=C1\\CCC[C@]2(C)[C@@H]([C@H](C)CCC(O)C(C)(C)O)CC[C@@H]12", "note": "(some centres unmarked) [the present substance, 24,25-dihydroxycholecalciferol]", "values": [{"measurement": "LD50 at 336 h", "setting": "[1]", "value": "≥ 100", "unit": "mg/kg"}, {"measurement": "survival / toxic symptoms", "setting": "male ICR mice; 10 male ICR mice, observed for 2 weeks", "value": "all the animals (10 mice) survived without any abnormality"}, {"measurement": "biochemical examination of the blood, autopsy and histopathological examination versus control animals", "setting": "male ICR mice; male ICR mice, after slaughter at 2 weeks", "value": "no difference was found"}]}
{"compound": "C=C1CC[C@H](O)C/C1=C/C=C1\\CCC[C@]2(C)[C@@H]([C@H](C)CC[C@@H](O)C(C)(C)O)CC[C@@H]12", "note": "[24R,25-(OH)₂-D₃]", "values": [{"measurement": "body weight change (growth curve)", "setting": "male or female ICR mice", "value": "any significant difference in the body weight change was not recognized"}, {"measurement": "histopathological examination of organs (hematoxylin·eosin)", "setting": "male or female ICR mice", "value": "any abnormal findings were not particularly recognized"}, {"measurement": "calculi in the pelvis and the papilla of the kidney, observation by naked eyes", "setting": "renal calculus; 10 rats, control group: 8 cases among 10 rats", "value": "any clear calculus was never recognized"}, {"measurement": "radial deposition of crystals in the renal parenchyma, observation by naked eyes", "setting": "renal calculus; 10 rats, remarkably found in the control group", "value": "one rat of 10 rats"}, {"measurement": "formation of calculus, soft X-ray photograph of the kidney", "setting": "renal calculus; compared with control rats", "value": "clear inhibition of the formation of calculus"}]}
